Experimental findings from ChEMBL document CHEMBL4665817, “Immobilized Metal Affinity Chromatography as a Drug Discovery Platform for Metalloenzyme Inhibitors” (J Med Chem, 2020) are described below.

What all share (conditions): dose 2.55 µmol
Experiment [1] is described as follows: Binding affinity to Zinc ion at 2.55 umol in presence of DTT by immobilized metal-ion affinity chromatography.
Experiment [2] is described as follows: Binding affinity to gallium ion assessed as accounting ratio by measuring total compound detected/total compound adsorbed at 2.55 umol by immobilized metal-ion affinity chromatography.
Experiment [3] in a line: Binding affinity to Nickel cation assessed as performance ratio ratio by measuring product of accounting ratio and retention ratio at 2.55 umol by immobilized metal-ion affinity chromatography.
Experiment [4] in a line: Binding affinity to Ferric ion assessed as performance ratio ratio by measuring product of accounting ratio and retention ratio at 2.55 umol by immobilized metal-ion affinity chromatography.
Experiment [5] in a line: Binding affinity to Nickel cation assessed as retention ratio by measuring compound detected in elution fraction/total compound detected at 2.55 umol by immobilized metal-ion affinity chromatography.
Experiment [6] in a line: Binding affinity to Zinc ion assessed as retention ratio by measuring compound detected in elution fraction/total compound detected at 2.55 umol by immobilized metal-ion affinity chromatography.
Experiment [7] is described as follows: Binding affinity to cupric ion assessed as performance ratio ratio by measuring product of accounting ratio and retention ratio at 2.55 umol by immobilized metal-ion affinity chromatography.
Experiment [8] is described as follows: Binding affinity to Gallium ion assessed as performance ratio ratio by measuring product of accounting ratio and retention ratio at 2.55 umol by immobilized metal-ion affinity chromatography.
A short description of experiment [9]: Binding affinity to cupric ion assessed as accounting ratio by measuring total compound detected/total compound adsorbed at 2.55 umol by immobilized metal-ion affinity chromatography.
A short description of experiment [10]: Binding affinity to Nickel cation assessed as accounting ratio by measuring total compound detected/total compound adsorbed at 2.55 umol by immobilized metal-ion affinity chromatography.
The nature of experiment [11]: Binding affinity to Gallium ion assessed as retention ratio by measuring compound detected in elution fraction/total compound detected at 2.55 umol by immobilized metal-ion affinity chromatography.
Experiment [12] can be described thus: Binding affinity to Zinc ion assessed as performance ratio ratio by measuring product of accounting ratio and retention ratio at 2.55 umol by immobilized metal-ion affinity chromatography.
Experiment [13] can be described thus: Binding affinity to cupric ion assessed as retention ratio by measuring compound detected in elution fraction/total compound detected at 2.55 umol by immobilized metal-ion affinity chromatography.
Experiment [14] is described as follows: Binding affinity to zinc ion assessed as accounting ratio by measuring total compound detected/total compound adsorbed at 2.55 umol by immobilized metal-ion affinity chromatography.
A short description of experiment [15]: Binding affinity to Ferric ion assessed as retention ratio by measuring compound detected in elution fraction/total compound detected at 2.55 umol by immobilized metal-ion affinity chromatography.
Experiment [16] is described as follows: Binding affinity to ferric ion assessed as accounting ratio by measuring total compound detected/total compound adsorbed at 2.55 umol by immobilized metal-ion affinity chromatography.

The source made the active and inactive calls. The calls are words filed in the database; no cut-off is given here.

Turning to `C[C@H](CSS[C@@H](Cc1ccccc1)C(=O)N[C@H]1CCS[C@H]2CCC[C@@H](C(=O)O)N2C1=O)C(=O)N1CCC[C@H]1C(=O)O`, in [1], the outcome was inactive.

In the case of `O=C(N[C@H]1CCS[C@H]2CCC[C@@H](C(=O)O)N2C1=O)[C@H](Cc1ccccc1)SS[C@@H](Cc1ccccc1)C(=O)N[C@H]1CCS[C@H]2CCC[C@@H](C(=O)O)N2C1=O`, the result in [1] was inactive.

On to `C[C@H](CSSC[C@@H](C)C(=O)N1CCC[C@H]1C(=O)O)C(=O)N1CCCC1C(=O)O` (stereo partly drawn), for which the outcome in experiment [1] was inactive.

As to `NCCCC[C@H](N[C@@H](CCc1ccccc1)C(=O)O)C(=O)N1CCC[C@H]1C(=O)O`, the Ratio in experiment [2] was found to be 0.93; in experiment [3], 0; in experiment [4] it was 0; in [5], 0; in experiment [6] it was 0; in [7], 0. Also, the Ratio in [8] stood at 0; in [9] it was 0.88; in experiment [10], 0.72; in experiment [11], 0; in experiment [12], 0; in experiment [13] it was 0. Further, the Ratio was found to be 0.89 in [14], 0 in experiment [15] and 0.9 in experiment [16].

Turning to `CC1(C)Cc2c(-c3ccccc3)c(-c3ccc(Cl)cc3)c(CC(=O)O)n2C1`, the Ratio in experiment [2] is 1.08; in experiment [3], 0.03; in experiment [4] it was 0.37; in experiment [5] it was 0.03; in experiment [6] it was 0.03; in experiment [7] it was 0. For the same molecule, the Ratio in [8] was found to be 0.06; in experiment [9], 1.03; in experiment [10] it was 1.03; in experiment [11] it was 0.06; in experiment [12], 0.03; in experiment [13] it was 0. The Ratio in experiment [14] worked out at 1.05; in experiment [15], 0.39; in experiment [16], 0.97.

As to `CC(=O)Nc1ccc(C(=O)Nc2ccccc2N)cc1`, the Ratio worked out at 0.99 in experiment [2]; 0.01 in experiment [3]; 0 in [4]; 0.01 in [5]; 0 in experiment [6]; 0 in experiment [7]. For the same molecule, the Ratio in experiment [8] is 0; in experiment [9], 0.99; in experiment [10], 1; in [11], 0; in experiment [12], 0; in experiment [13] it was 0. In addition, the Ratio came out at 1.01 in experiment [14], 0 in [15] and 1.01 in [16].
